From patent US9556117B2, “Indole carboxamide derivatives as P2X7 receptor antagonists” (ACTELION PHARMACEUTICALS LTD, priority 2012, dated 2017)

Molecular target: human recombinant P2X7 receptor (Homo sapiens (Human), UniProt Q99572)
Test: YO-PRO1 assay, P2X7 receptor antagonistic activity

Sequence of human recombinant P2X7 receptor (Q99572 whole entry): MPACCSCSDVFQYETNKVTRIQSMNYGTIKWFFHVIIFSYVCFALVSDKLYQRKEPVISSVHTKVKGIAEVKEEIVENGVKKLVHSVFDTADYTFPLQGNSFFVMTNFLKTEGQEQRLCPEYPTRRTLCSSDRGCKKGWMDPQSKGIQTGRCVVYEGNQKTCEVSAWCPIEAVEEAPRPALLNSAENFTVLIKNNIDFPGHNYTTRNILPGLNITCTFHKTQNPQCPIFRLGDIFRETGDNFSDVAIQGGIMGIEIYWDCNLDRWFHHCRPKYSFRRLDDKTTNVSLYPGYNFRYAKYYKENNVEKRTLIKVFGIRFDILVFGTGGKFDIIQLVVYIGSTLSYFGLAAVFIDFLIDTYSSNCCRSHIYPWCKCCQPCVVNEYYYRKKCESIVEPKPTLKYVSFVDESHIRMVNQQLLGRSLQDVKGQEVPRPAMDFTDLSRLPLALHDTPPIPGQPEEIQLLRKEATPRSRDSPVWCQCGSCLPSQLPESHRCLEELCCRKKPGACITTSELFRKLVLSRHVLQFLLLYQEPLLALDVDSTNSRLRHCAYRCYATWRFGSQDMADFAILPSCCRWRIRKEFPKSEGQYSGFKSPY

Row | SMILES | IC50 [nM]
1 | O=C(NC(CO)C1CCCCCC1)c1ccc2[nH]ccc2c1Cl (racemic) [Example 10, rac-4-Chloro-1H-indole-5-carboxylic acid (1-cycloheptyl-2-hydroxy-ethyl)-amide] | 57
2 | CC(O)c1cc(C(=O)NCC2(O)CCC(F)(F)CC2)c(Cl)c2cc[nH]c12 (racemic) [Example 67, rac-4-Chloro-7-(1-hydroxy-ethyl)-1H-indole-5-carboxylic acid (4,4-difluoro-1-hydroxy-cyclohexylmethyl)-amide] | 4.7
